Results reported in patent publication US20050065194A1, “Methods of treating conditions associated with an Edg-2 receptor” (priority 2003, published 2005).

Tests used:
[1] = tested on: various targets tested, including other GPCRs, ion channels, and enzymes; assay: Pharmacology profiling (selectivity assays), panel of non-Edg targets of Table 2; format: binding; conditions: all targets listed in Table 2 (bradykinin, CB2, chemokine, dopamine, histamine, muscarinic, NPY, opiate, prostanoid, purinergic, serotonin, sigma, sodium channel, tachykinin, growth factors etc.)
Edg 5 receptor = target: T1, Edg 5 receptor (Homo sapiens, UniProt O95136); assay: LPA/S1P-stimulated calcium mobilization assay (FLIPR), HTC cells expressing Edg 5; format: cell-based; conditions: for inhibition of S1P-stimulated calcium increases: FIG. 1 / FIG. 2
T1 construct: expressed in transfected cells; host or cells: HTC (rat hepatoma) cells

Edg-2 receptor = target: T2, Edg-2 receptor (Homo sapiens, UniProt Q92633); assay: LPA/S1P-stimulated calcium mobilization assay (FLIPR), HTC cells expressing Edg 2; format: cell-based; conditions: for inhibition of the Edg 2 receptor: FIG. 1 / FIG. 2; for IC50: HTC cells expressing Edg 2; for Fold Selective: selectivity for Edg-2 relative to other Edg receptors
T2 construct: expressed in transfected cells
Text: Specific assays for Edg-2 receptor activity are known to those of skill in the art. For example, cells expressing Edg-2 receptors can be contacted with a membrane-permeant calcium sensitive dye such as Fluo-4 AM or a proprietary calcium dye loading kit (e.g., FLIPR Calcium Assay kit, Molecular Devices, Sunnyvale, Calif.). Intracellular calcium is capable of binding to the dye and emitting fluorescent radiation when illuminated at the appropriate wavelength. The cells can thus be illuminated an appropriate wavelength for the dye and any emitting light can be captured by a cooled CCD camera. Changes in fluorescence indicate changes in intracellular calcium resulting from the activation of an Edg-2 receptor. Such changes can be measured advantageously in whole cells in “real-time” (Berridge et al., Nature Reviews 2000, 1:11-21).
LPA receptors such as Edg-2, couple to calcium effector pathways, and result in increases in intracellular calcium following receptor activation (An, 1998, J. Cell. Biochem. Supp., 30-31: 147-157). This biological response lends itself to a very efficient, high-throughput screen using a Fluorescence Imaging Plate Reader (FLIPR; Molecular Devices, Sunnyvale, Calif.). The FLIPR system is a real-time, cell-based assay system with continuous fluorescence detection using a cooled CCD camera. The FLIPR system was used to developing an Edg-2 receptor screen. Rat hepatoma cells stably expressing Edg-2 receptor were plated on 384-well plates and loaded with a calcium dye loading kit (Molecular Devices, Sunnyvale, Calif.) for 1 hour at room temperature. Cells were then placed on the FLIPR^384 (Molecular Devices, Sunnyvale, Calif.) and excited by an argon laser at 488 nm. The data for the entire 384-well plate was updated every second. An integrated robotic pipettor allowed for simultaneous compound addition into each individual well in the plate.

Edg-7 receptor = target: T3, Edg-7 receptor (Homo sapiens, UniProt Q9UBY5); assay: LPA/S1P-stimulated calcium mobilization assay (FLIPR), HTC cells expressing Edg 7; format: cell-based; conditions: for inhibition of LPA-stimulated calcium increases: FIG. 1 / FIG. 2
T3 construct: expressed in transfected cells; host or cells: HTC (rat hepatoma) cells
T3 sequence (Q9UBY5 1-353): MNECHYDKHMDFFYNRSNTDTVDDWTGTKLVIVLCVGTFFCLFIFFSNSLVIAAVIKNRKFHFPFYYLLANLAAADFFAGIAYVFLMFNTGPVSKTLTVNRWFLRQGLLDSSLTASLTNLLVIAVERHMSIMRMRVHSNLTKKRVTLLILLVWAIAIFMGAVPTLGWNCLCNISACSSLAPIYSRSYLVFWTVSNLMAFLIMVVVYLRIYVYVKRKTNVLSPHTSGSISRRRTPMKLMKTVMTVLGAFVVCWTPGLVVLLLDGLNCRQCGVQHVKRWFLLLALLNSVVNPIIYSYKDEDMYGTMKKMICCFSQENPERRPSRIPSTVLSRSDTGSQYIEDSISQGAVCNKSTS

Edg 3 receptor = target: T4, Edg 3 receptor (Homo sapiens, UniProt Q99500); assay: LPA/S1P-stimulated calcium mobilization assay (FLIPR), HTC cells expressing Edg 3; format: cell-based; conditions: for inhibition of S1P-stimulated calcium increases: FIG. 1 / FIG. 2
T4 construct: expressed in transfected cells; host or cells: HTC (rat hepatoma) cells

Edg-4 receptor = target: T5, Edg-4 receptor (Homo sapiens, UniProt Q9HBW0); assay: LPA/S1P-stimulated calcium mobilization assay (FLIPR), HTC cells expressing Edg 4; format: cell-based; conditions: for inhibition of LPA-stimulated calcium increases: FIG. 1 / FIG. 2
T5 construct: expressed in transfected cells; host or cells: HTC (rat hepatoma) cells

Edg 1 receptor = target: T6, Edg 1 receptor (Homo sapiens, UniProt P21453); assay: LPA/S1P-stimulated calcium mobilization assay (FLIPR), HTC cells expressing Edg 1; format: cell-based; conditions: for inhibition of S1P-stimulated calcium increases: FIG. 1 / FIG. 2
T6 construct: expressed in transfected cells; host or cells: HTC (rat hepatoma) cells

Edg 8 receptor = target: T7, Edg 8 receptor (Homo sapiens, UniProt Q9H228); assay: LPA/S1P-stimulated calcium mobilization assay (FLIPR), HTC cells expressing Edg 8; format: cell-based; conditions: for inhibition of S1P-stimulated calcium increases: FIG. 1 / FIG. 2
T7 construct: expressed in transfected cells; host or cells: HTC (rat hepatoma) cells

Endothelin ETA = Endothelin ETA (Homo sapiens, UniProt P25101); conditions: significance criteria ≧50% of max stimulation or inhibition; Table 2
Description: (§1) In order to test the selectivity of compounds, various radioligand binding assays were performed using numerous non-Edg receptor targets as listed below.
(§2) A radioligand binding assay was performed using adrenergic α1 according to the method of Greengrass and Bremner 1979, Eur. J. Pharmacol. 55:323-326. A radioligand binding assay was performed using adrenergic α2 according to the method of Boyajian and Leslie, 1987, J. Pharmacol. Exp. Ther. 241:1092-1098. A radioligand binding assay was performed using adrenergic β according to the method of Feve et al., 1994, Proc. Natl. Acad. Sci USA 91:5677-5681. A radioligand binding assay was performed using angiotensin AT2 according to the method of Whitebread et al., 1991, Biochem. Biophys. Res. Comm. 181:1365-1371. A radioligand binding assay was performed using calcium channel Type L, dihydropyridine according to the method of Ehlert et al., 1982, Life Sci. 30:2191-2202. A radioligand binding assay was performed using dopamine D2L according to the method of Bunzo et al., 1988, Nature 336:783-787. A radioligand binding assay was performed using endothelin ETA according to the method of Mihara et al., 1994, J. Pharmacol. Exp Ther. 268:1122-1127. A radioligand binding assay was performed using histamine H1 Central according to the method of Hill et al., 1978, J. Neurochem. 31:997-1004. A radioligand binding assay was performed using Muscarinic non-selective, Central according to the method of Luthin and Wolfe, 1984, J. Pharmacol. Exp. Ther. 228:648-655. A radioligand binding assay was performed using serotonin 5-HT1, non-selective according to the method of Middlemiss, 1984, Eur. J. Pharmacol. 101:289-293).

[2] = tested on: Serotonin 5-HT1, non-selective; conditions: significance criteria ≧50% of max stimulation or inhibition; Table 2
Description: as §1, §2

Adrenergic β = conditions: significance criteria ≧50% of max stimulation or inhibition; Table 2
Description: as §1, §2

[3] = tested on: Adrenergic α1, non-selective; conditions: significance criteria ≧50% of max stimulation or inhibition; Table 2
Description: as §1, §2

[4] = tested on: Muscarinic non-selective, Central; conditions: significance criteria ≧50% of max stimulation or inhibition; Table 2
Description: as §1, §2

Adrenergic α2 = conditions: significance criteria ≧50% of max stimulation or inhibition; Table 2
Description: as §1, §2

Angiotensin AT2 = Angiotensin AT2 (Homo sapiens, UniProt P50052); conditions: significance criteria ≧50% of max stimulation or inhibition; Table 2
Description: as §1, §2

Histamine H1, Central = Histamine H1, Central (Cavia porcellus, UniProt P31389); conditions: significance criteria ≧50% of max stimulation or inhibition; Table 2
Description: as §1, §2

Dopamine D2L = Dopamine D2L (Homo sapiens, UniProt P14416); conditions: significance criteria ≧50% of max stimulation or inhibition; Table 2
Description: as §1, §2

[5] = tested on: Calcium Channel Type L, Dihydropyridine; conditions: significance criteria ≧50% of max stimulation or inhibition; Table 2
Description: as §1, §2

[6] = tested on: forskolin-stimulated cAMP production; assay: cAMP assay: LPA inhibition of forskolin-stimulated cAMP production; format: cell-based; conditions: FIG. 4
Text: Because cAMP acts a second messenger in cell signaling, activating protein kinases that in turn phosphorylate enzymes and transcription factors, cAMP concentration is frequently indicative of the activation state of downstream signaling pathways. For GPCRs like the Edg receptors, coupling via a Gαi pathway results in inhibition of adenylyl cyclase activity, the key enzyme involved in breakdown of ATP and formation of cAMP. Thus, assays can be designed to measure inhibition of adenylyl cyclase activity, by first stimulating cAMP formation. One example of a compound, which stimulates cAMP formation is forskolin. Forskolin bypasses the receptor and directly activates adenylyl cyclase. […]
This assay can be performed by any means known to one of skill in the art. […] Following an incubation period, the cells are lysed and the level of cAMP is determined.
The cAMP assay can be performed by any means known to one of skill in the art, for example, by performing a competitive immunoassay. […] Detection can be performed by any appropriate means, including, but not limited to, using a substrate solution and chemiluminescent readout.
Cells were plated in a 96 well format. […] Following a 30-minute incubation period, the cells were lysed and the level of cAMP was determined. […]
Detection was performed using a substrate solution and chemiluminescent readout. […]

[7] = tested on: immortalized ovarian surface epithelial cells; assay: LPA-stimulated calcium mobilization in immortalized ovarian surface epithelial cells; format: cell-based; conditions: 10 μM compound, FIG. 3

T4 sequence (Q99500 whole entry): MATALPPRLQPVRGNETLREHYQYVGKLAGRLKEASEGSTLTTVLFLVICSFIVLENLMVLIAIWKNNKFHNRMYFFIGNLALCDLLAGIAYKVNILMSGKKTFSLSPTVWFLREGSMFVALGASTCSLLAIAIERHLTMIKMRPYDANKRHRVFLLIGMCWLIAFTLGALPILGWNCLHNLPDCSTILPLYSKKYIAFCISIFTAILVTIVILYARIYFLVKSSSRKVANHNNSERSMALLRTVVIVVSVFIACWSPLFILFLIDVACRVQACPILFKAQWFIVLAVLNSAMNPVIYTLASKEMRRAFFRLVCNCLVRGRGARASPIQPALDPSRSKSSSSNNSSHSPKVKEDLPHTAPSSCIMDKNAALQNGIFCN
T1 sequence (O95136 whole entry): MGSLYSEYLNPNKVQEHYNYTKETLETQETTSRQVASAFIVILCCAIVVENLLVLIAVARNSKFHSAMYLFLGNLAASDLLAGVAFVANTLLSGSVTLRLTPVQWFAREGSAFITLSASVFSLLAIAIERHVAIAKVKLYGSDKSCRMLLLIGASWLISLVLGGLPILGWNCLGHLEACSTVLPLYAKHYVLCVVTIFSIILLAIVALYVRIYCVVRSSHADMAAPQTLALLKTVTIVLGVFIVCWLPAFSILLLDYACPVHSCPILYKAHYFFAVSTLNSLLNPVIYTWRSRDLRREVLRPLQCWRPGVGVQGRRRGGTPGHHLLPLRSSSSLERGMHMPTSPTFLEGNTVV
T2 sequence (Q92633 whole entry): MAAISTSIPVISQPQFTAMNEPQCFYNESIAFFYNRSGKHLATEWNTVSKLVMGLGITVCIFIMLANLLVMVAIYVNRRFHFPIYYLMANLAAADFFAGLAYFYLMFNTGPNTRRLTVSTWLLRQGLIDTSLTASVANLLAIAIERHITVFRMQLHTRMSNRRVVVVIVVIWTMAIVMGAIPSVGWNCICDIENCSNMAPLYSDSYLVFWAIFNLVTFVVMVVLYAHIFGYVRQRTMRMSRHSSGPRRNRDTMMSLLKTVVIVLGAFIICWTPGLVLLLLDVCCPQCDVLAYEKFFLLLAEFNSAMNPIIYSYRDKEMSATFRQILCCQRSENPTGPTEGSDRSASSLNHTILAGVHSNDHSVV
T7 sequence (Q9H228 whole entry): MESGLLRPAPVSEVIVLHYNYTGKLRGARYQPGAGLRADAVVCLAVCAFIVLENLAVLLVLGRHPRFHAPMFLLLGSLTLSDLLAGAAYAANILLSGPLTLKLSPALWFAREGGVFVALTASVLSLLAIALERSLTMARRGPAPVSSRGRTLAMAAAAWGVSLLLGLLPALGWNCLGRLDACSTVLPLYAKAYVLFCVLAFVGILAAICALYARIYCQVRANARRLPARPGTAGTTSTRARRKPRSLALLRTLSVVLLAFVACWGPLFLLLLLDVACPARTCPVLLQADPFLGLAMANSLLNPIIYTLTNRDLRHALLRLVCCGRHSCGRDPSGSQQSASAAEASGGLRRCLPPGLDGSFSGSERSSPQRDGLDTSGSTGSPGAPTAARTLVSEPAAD
T5 sequence (Q9HBW0 whole entry): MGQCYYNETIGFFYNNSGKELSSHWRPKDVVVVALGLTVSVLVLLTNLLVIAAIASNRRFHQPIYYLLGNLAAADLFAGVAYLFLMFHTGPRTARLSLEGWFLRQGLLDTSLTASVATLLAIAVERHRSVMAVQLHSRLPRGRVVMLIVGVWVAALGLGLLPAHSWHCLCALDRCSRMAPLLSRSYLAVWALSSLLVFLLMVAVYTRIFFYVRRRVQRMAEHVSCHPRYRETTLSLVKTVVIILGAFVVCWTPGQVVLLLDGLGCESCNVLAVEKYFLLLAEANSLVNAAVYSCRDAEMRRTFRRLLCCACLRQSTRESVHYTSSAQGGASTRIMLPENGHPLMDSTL
T6 sequence (P21453 whole entry): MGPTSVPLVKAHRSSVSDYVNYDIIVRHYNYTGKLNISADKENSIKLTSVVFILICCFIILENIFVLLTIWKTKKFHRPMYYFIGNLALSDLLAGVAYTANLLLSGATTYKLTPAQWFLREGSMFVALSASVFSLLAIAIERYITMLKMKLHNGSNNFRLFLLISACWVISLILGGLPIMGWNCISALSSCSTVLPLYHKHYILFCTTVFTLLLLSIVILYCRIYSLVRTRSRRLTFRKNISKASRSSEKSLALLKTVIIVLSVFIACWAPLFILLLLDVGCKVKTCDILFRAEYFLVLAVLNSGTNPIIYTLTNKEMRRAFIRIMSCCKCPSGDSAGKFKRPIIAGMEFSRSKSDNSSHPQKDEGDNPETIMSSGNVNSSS
Endothelin ETA, sequence (P25101 21-427): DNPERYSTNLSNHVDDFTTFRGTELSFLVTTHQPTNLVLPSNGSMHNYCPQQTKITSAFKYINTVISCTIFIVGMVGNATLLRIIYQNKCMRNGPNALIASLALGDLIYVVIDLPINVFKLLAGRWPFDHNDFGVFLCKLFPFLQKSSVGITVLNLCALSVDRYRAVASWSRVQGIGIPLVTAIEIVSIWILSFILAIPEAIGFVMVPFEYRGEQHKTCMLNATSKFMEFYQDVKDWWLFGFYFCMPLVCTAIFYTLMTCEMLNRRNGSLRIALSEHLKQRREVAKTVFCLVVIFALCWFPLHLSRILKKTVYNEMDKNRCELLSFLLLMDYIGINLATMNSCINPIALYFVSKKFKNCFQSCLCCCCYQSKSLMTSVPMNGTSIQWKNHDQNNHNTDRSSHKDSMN
Histamine H1, Central, sequence (P31389 whole entry): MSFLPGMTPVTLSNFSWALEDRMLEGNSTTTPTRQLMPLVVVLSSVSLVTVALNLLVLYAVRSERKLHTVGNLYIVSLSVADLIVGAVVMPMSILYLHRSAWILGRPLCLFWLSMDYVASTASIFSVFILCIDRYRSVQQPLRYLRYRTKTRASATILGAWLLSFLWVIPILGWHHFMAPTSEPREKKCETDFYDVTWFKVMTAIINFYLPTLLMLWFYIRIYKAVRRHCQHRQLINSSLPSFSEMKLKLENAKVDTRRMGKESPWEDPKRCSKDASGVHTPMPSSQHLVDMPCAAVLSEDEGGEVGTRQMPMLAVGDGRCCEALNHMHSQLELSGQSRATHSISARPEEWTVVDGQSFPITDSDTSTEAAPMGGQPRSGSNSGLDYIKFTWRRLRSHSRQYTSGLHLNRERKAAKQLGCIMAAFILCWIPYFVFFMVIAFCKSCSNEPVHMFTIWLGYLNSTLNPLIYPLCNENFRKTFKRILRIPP
Angiotensin AT2, sequence (P50052 whole entry): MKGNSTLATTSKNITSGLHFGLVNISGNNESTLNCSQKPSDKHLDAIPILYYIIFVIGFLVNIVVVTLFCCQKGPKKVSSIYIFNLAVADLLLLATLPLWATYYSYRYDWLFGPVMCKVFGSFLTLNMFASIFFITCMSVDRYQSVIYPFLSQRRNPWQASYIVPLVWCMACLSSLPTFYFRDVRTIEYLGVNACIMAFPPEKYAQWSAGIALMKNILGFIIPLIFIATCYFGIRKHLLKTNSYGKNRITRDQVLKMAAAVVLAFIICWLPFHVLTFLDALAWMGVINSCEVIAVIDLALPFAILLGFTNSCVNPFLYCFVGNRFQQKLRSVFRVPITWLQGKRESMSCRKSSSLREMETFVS
Dopamine D2L, sequence (P14416 whole entry): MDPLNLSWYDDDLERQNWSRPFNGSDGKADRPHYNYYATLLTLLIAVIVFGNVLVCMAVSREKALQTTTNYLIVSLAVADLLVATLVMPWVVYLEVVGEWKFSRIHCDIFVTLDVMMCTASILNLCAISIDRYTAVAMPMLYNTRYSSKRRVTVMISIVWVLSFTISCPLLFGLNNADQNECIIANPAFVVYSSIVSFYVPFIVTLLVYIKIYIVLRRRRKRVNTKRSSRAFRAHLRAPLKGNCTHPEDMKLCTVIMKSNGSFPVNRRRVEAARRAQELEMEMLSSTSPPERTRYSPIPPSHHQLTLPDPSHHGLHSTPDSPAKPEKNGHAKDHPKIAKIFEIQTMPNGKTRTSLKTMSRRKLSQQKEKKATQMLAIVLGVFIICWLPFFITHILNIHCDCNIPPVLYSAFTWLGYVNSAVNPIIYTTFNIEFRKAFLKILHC

Row | Structure (SMILES) | activity at various targets tested, including other GPCRs, ion channels, and enzymes [1] | IC50 (Edg 5 receptor) | inhibition of S1P-stimulated calcium increases (Edg 5 receptor) | inhibition of the Edg 2 receptor (Edg-2 receptor) | IC50 (Edg-2 receptor) | Fold Selective (Edg-2 receptor) | IC50 (Edg-7 receptor) | inhibition of LPA-stimulated calcium increases (Edg-7 receptor) | IC50 (Edg 3 receptor) | inhibition of S1P-stimulated calcium increases (Edg 3 receptor) | IC50 (Edg-4 receptor) | inhibition of LPA-stimulated calcium increases (Edg-4 receptor) | IC50 (Edg 1 receptor) | inhibition of S1P-stimulated calcium increases (Edg 1 receptor) | IC50 (Edg 8 receptor) | inhibition of S1P-stimulated calcium increases (Edg 8 receptor) | reversal of the inhibitory effects of LPA on forskolin-stimulated cAMP production [6] | inhibition of LPA-stimulated calcium mobilization [7] | other results
1 | CCOc1ccccc1N1C(=O)CC(N(O)c2ccccc2)C1=O (centres unmarked) [Compound 101, 1-(2-Ethoxyphenyl)-3-(hydroxyphenylamino)-pyrrolidine-2,5-dione] | did not demonstrate any significant activity | > 20 µM | did not inhibit | specifically inhibit | 1.63 µM | >12.3 Fold | > 20 µM | did not inhibit | > 20 µM | did not inhibit | > 20 µM | did not inhibit | > 20 µM | did not inhibit | > 20 µM | did not inhibit | – | – | activity in radioligand binding assay, Endothelin ETA (Endothelin ETA): no significant activity; activity in radioligand binding assay, Serotonin 5HT1 non-selective [2]: no significant activity; activity in radioligand binding assay, Adrenergic Beta, non-selective (Adrenergic β): no significant activity; activity in radioligand binding assay, Adrenergic Alpha 1, non-selective [3]: no significant activity; activity in radioligand binding assay, Muscarinic, non-selective, central [4]: no significant activity; activity in radioligand binding assay, Adrenergic Alpha 2, non-selective (Adrenergic α2): no significant activity; activity in radioligand binding assay, Angiotensin AT2 (Angiotensin AT2): no significant activity; activity in radioligand binding assay, H1 central (Histamine H1, Central): no significant activity; activity in radioligand binding assay, Dopamine D2L (Dopamine D2L): no significant activity; activity in radioligand binding assay, Calcium Channels Type L, DHP [5]: no significant activity
2 | CCn1nc(C)c(-c2ccccc2O)c1-c1ccccc1 [Compound 103, 2-(1-Ethyl-3-methyl-5-phenyl-1H-pyrazol-4-yl)-phenol] | did not demonstrate any significant activity | > 20 µM | did not inhibit | specifically inhibited | 0.51 µM | >39.3 Fold | > 20 µM | did not inhibit | > 20 µM | did not inhibit | > 20 µM | did not inhibit | > 20 µM | did not inhibit | > 20 µM | did not inhibit | reverses the inhibitory effects of LPA | almost completely inhibited | –
3 | CCOc1ccccc1N1C(=O)CC(N(O)c2ccc(F)cc2)C1=O (centres unmarked) [Compound 111, 1-(2-Ethoxyphenyl)-3-[(4-fluorophenyl)hydroxylamino]pyrrolidine-2,5-dione] | – | – | – | – | – | – | – | – | – | – | – | – | – | – | – | – | – | – | melting point: 123 to 124 °C
4 | O=C(CC(=O)C(F)(F)F)Nc1cc(-c2ccccc2)n[nH]1 [Compound 201, 4,4,4-trifluoro-3-oxo-N-(5-phenyl-2H-pyrazol-3-yl)-butyramide, reference compound] | – | – | – | – | – | – | – | – | – | – | – | – | – | – | – | – | little to no effect | little to no effect | –
